According to the supplement of paper PMC11368000:

Tests used:
Settings in all cases: exposure time: 90 min
20032 [1] = donor line of iPSC-derived cardiomyocytes; assay: POD (EC95) for loss of peak frequency (asystole) vs vehicle; higher = less potent (higher point of departure)
Procedure, shortened: (§1)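 For each of 16 donors, iPSC-derived human cardiomyocytes were cultured 14 days in gelatin-coated 384-well plates and given a fluorescent Ca2+ dye for 2 h. Exposure lasted 90 min at 37 °C at 0.1, 1, 10 and 100 µM final, with 0.5% DMSO, and a FLIPR Tetra captured Ca2+ flux at 8 frames/s over 100 s both before and afterwards. Points of departure per donor were estimated by hierarchical Bayesian Hill fits to vehicle-normalised beat frequency, decay-to-rise ratio or peak frequency, using thresholds of 5% change, or 95% loss for peak frequency.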

1565 [2] = donor line of iPSC-derived cardiomyocytes; assay: as above
Procedure, shortened: as §1

1434 [3] = donor line of iPSC-derived cardiomyocytes; assay: as above
Procedure, shortened: as §1

1118 [4] = donor line of iPSC-derived cardiomyocytes; assay: as above
Procedure, shortened: as §1

1083 [5] = donor line of iPSC-derived cardiomyocytes; assay: as above
Procedure, shortened: as §1

11235 [6] = donor line of iPSC-derived cardiomyocytes; assay: as above
Procedure, shortened: as §1

30171 [7] = donor line of iPSC-derived cardiomyocytes; assay: as above
Procedure, shortened: as §1

1531 = donor line of iPSC-derived cardiomyocytes; assay: as above
Procedure, shortened: as §1

20032 [8] = assay: POD (EC05) for increase in Ca2+ transient decay-to-rise ratio (QT prolongation) vs vehicle; higher = less potent (higher point of departure)
Method: (§2)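 Human iPSC-derived cardiomyocytes from 16 donors were exposed for 90 min at 37 °C to each PFAS at 0.1, 1, 10 and 100 µM in 0.5% DMSO, 384-well plates. Kinetic Ca2+ flux (FLIPR) and Hoechst nuclei counts were normalised to vehicle wells and fitted with a hierarchical Bayesian Hill model to give donor-specific PODs: EC05 for beat-rate increase or decrease and for decay-to-rise ratio increase (QT proxy), EC95 for peak-frequency loss (asystole), EC10 for total cell number loss. 0.03 µM is the lower bound.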

1565 [9] = assay: as above
Method: as §2

1392 = donor line of iPSC-derived cardiomyocytes; assay: as above
Method: as §2

30145 = donor line of iPSC-derived cardiomyocytes; assay: as above
Method: as §2

20084 = donor line of iPSC-derived cardiomyocytes; assay: as above
Method: as §2

1434 [10] = assay: as above
Method: as §2

1368 = donor line of iPSC-derived cardiomyocytes; assay: as above
Method: as §2

1118 [11] = assay: as above
Method: as §2

1083 [12] = assay: as above
Method: as §2

11235 [13] = assay: as above
Method: as §2

1309 = donor line of iPSC-derived cardiomyocytes; assay: as above
Method: as §2

30171 [14] = assay: as above
Method: as §2

Measured: POD vs vehicle

NC(=O)C(F)(F)C(F)(F)C(F)(F)C(F)F
0.543 µM: 1434 [10]
7.19 µM: 1118 [11]
17 µM: 30171 [14]
1.78 µM: 1565 [9]
0.131 µM: 20032 [8]
> 100 µM: all other assays above

OCC(O)CC(F)(F)C(F)(F)C(F)(F)C(F)(F)C(F)(F)C(F)(F)C(F)(F)C(F)(F)F (stereo not given) [1-(Perfluorofluorooctyl)propane-2,3-diol]
1.19 µM: 1118 [4]
> 100 µM: all other assays above

CC(O)C(F)(F)C(F)(F)F (stereo not given) [1-Pentafluoroethylethanol]
> 100 µM: all assays above

OCC(F)(F)C(F)(F)C(F)(F)C(F)F [1H,1H,5H-Perfluoropentanol]
86.3 µM: 1118 [4]
5.77 µM: 20084
> 100 µM: all other assays above

O=S(=O)(OCC(F)(F)F)C(F)(F)C(F)(F)C(F)(F)C(F)(F)F [2,2,2-Trifluoroethyl_perfluorobutanesulfonate]
> 100 µM: all assays above

O=C(O)C(F)(F)C(F)(F)C(F)F [2,2,3,3,4,4-Hexafluorobutanoic_acid]
> 100 µM: all assays above

NC(O)(C(F)(F)F)C(F)(F)F [2-Aminohexafluoropropan-2-ol]
72.8 µM: 11235 [6]
> 100 µM: all other assays above

O=C(O)CCC(F)(F)C(F)(F)C(F)(F)C(F)(F)C(F)(F)F [2H,2H,3H,3H-Perfluorooctanoic_acid]
92.7 µM: 1531
48.4 µM: 20032 [8]
59.9 µM: 11235 [6]
90.8 µM: 1434 [3]
71.8 µM: 30171 [7]
67.4 µM: 1118 [4]
> 100 µM: all other assays above

O=C(O)C=C(C(F)(F)F)C(F)(F)F [3,3-Bis(trifluoromethyl)-2-propenoic_acid]
> 100 µM: all assays above

O=C(O)C=CC(F)(C(F)(F)F)C(F)(F)F [3-(Perfluoroisopropyl)-2-propenoic_acid]
> 100 µM: all assays above

O=C(O)CCC(F)(F)C(F)(F)C(F)(F)C(F)(F)C(F)(F)C(F)(F)C(F)(F)F [3-Perfluoroheptylpropanoic_acid]
36.7 µM: 20084
59.8 µM: 1118 [4]
90.9 µM: 1434 [3]
84.8 µM: 11235 [6]
33.8 µM: 20032 [8]
> 100 µM: all other assays above

O=C(O)CCC(F)(F)C(F)(F)C(F)(F)F [3:3 Fluorotelomer carboxylic acid]
> 100 µM: all assays above

O=C(CC(=O)C(F)(F)C(F)(F)F)C(F)(F)F [3H,3H-Perfluoro-2,4-hexanedione]
79.9 µM: 30171 [7]
87.4 µM: 11235 [6]
80.5 µM: 1118 [4]
78.3 µM: 1434 [3]
> 100 µM: all other assays above

OCCC(F)(F)C(F)(F)C(F)(F)C(F)(F)F [4:2 Fluorotelomer alcohol]
89.1 µM: 1118 [4]
> 100 µM: all other assays above

O=S(=O)(O)CCC(F)(F)C(F)(F)C(F)(F)C(F)(F)F [4:2 Fluorotelomer sulfonic acid]
> 100 µM: all assays above

OCC(F)(F)C(F)(F)C(F)(F)C(F)(F)C(F)(F)C(F)(F)F [6:1 Fluorotelomer alcohol]
75.4 µM: 1434 [3]
80.8 µM: 30171 [7]
1.75 µM: 1118 [4]
70.2 µM: 11235 [6]
84.3 µM: 1083 [5]
> 100 µM: all other assays above

NC(=O)C(F)(F)C(F)(F)C(F)(F)F [Heptafluorobutyramide]
not listed: 20032 [8]
> 100 µM: all other assays above

CN(CCO)S(=O)(=O)C(F)(F)C(F)(F)C(F)(F)C(F)(F)C(F)(F)C(F)(F)C(F)(F)C(F)(F)F [N-Methyl-N-(2-hydroxyethyl)perfluorooctanesulfonamide]
65 µM: 1083 [5]
69.7 µM: 30171 [7]
not listed: 1118 [4]
> 100 µM: all other assays above

NC(=O)C(F)(F)C(F)(F)C(F)(F)C(F)(F)C(F)(F)C(F)(F)C(F)(F)F [Perfluorooctanamide]
not listed: 20032 [8] | 20084
> 100 µM: all other assays above

N=C(N)C(F)(F)C(F)(F)C(F)(F)C(F)(F)C(F)(F)C(F)(F)C(F)(F)F [Perfluorooctanamidine]
25.6 µM: 1118 [4]
0.145 µM: 20084
not listed: 20032 [8]
> 100 µM: all other assays above
